{
  "source": "patent US20260355196A1",
  "about": "“INHIBITORS AND DEGRADERS OF PIP4K PROTEIN” (Larkspur Biosciences, Inc., priority 2023, published 2026)",
  "target": "T1, PIP4K2C (Homo sapiens, UniProt Q8TBX8)",
  "T1 sequence (Q8TBX8 1-421)": "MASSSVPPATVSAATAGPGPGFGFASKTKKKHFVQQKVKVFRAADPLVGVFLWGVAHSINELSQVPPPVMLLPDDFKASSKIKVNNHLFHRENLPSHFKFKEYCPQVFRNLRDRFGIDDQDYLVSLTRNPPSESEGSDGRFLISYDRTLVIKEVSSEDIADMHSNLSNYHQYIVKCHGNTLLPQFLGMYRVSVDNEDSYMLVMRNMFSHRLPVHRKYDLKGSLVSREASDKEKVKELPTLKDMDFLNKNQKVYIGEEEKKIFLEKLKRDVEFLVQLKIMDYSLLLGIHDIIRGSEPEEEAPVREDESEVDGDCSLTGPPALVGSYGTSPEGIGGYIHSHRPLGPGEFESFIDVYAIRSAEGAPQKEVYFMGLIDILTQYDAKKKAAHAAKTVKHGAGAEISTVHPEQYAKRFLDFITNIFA",
  "test": "HiBiT PIP4K2C degradation assay in MOLT-4 cells (endogenous PIP4K2C C-terminally tagged with HiBiT)",
  "format": "cell-based",
  "design": "untagged in primary human PBMCs and monocyte-derived dendritic cells",
  "conditions": "6 hours of incubation time, rather than 24 hours; MOLT-4, top concentration 10 micromolar; read-out: HiBIT-degradation MOLT4 PIP4k2C DC50 (6 hours, marked *)",
  "how_it_was_run": "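Luminescent HiBiT lytic readout of residual PIP4K2C-HiBiT (CRISPR knock-in, MOLT-4, phenol red-free RPMI-1640 + 10% FBS). Cells exposed 6 or 24 h at 37 C to compound, top 10 micromolar, 3-fold, 10 points, duplicate. Hill fit (Levenberg-Marquardt) gives DC50.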",
  "data": [
    {"smiles": "O=C1CCC(Nc2ccc(N3CCN(CC4CCN(C(=O)[C@H]5CC[C@H](Nc6ncc(F)c(-c7cccc(N8CCCOC8=O)c7)n6)CC5)CC4)CC3)c(F)c2)C(=O)N1", "note": "(stereo partly drawn) [Compound 426, trans-3-[3-fluoro-4-[4-[[1-[4-[[5-fluoro-4-[3-(2-oxo-1,3-oxazinan-3-yl)phenyl]pyrimidin-2-yl]amino]cyclohexanecarbonyl]-4-piperidyl]methyl]piperazin-1-yl]anilino]piperidine-2,6-dione]", "values": [
      {"measurement": "DC50", "result": "< 500", "unit": "nM"}
    ]},
    {"smiles": "O=C1CCC(Nc2ccc(C3CCN(CC4CCN(C(=O)[C@H]5CC[C@H](Nc6ncc(F)c(-c7cccc(N8CCCOC8=O)c7)n6)CC5)CC4)CC3)c(F)c2)C(=O)N1", "note": "(stereo partly drawn) [Compound 427, trans-3-((3-fluoro-4-(1-((1-(4-((5-fluoro-4-(3-(2-oxo-1,3-oxazinan-3-yl)phenyl)pyrimidin-2-yl)amino)cyclohexane-1-carbonyl)piperidin-4-yl)methyl)piperidin-4-yl)phenyl)amino)piperidine-2,6-dione]", "values": [
      {"measurement": "DC50", "result": "< 500", "unit": "nM"}
    ]},
    {"smiles": "O=C1CCC(Nc2ccc(N3CCC(CN4CCN(C(=O)[C@H]5CC[C@H](Nc6ncc(F)c(-c7cccc(N8CCCOC8=O)c7)n6)CC5)CC4)CC3)c(F)c2)C(=O)N1", "note": "(stereo partly drawn) [Compound 428, trans-3-((3-fluoro-4-(4-((4-(4-((5-fluoro-4-(3-(2-oxo-1,3-oxazinan-3-yl)phenyl)pyrimidin-2-yl)amino)cyclohexane-1-carbonyl)piperazin-1-yl)methyl)piperidin-1-yl)phenyl)amino)piperidine-2,6-dione]", "values": [
      {"measurement": "DC50", "result": "< 500", "unit": "nM"}
    ]},
    {"smiles": "O=C1CCC(Nc2ccc(N3CCC(N4CCC(C(=O)N[C@H]5CC[C@H](Nc6ncc(F)c(-c7cccc(-c8ccc[nH]c8=O)c7)n6)CC5)CC4)CC3)c(F)c2)C(=O)N1", "note": "(stereo partly drawn) [Compound 429, trans-1′-(4-((2,6-dioxopiperidin-3-yl)amino)-2-fluorophenyl)-N-(4-((5-fluoro-4-(3-(2-oxo-1,2-dihydropyridin-3-yl)phenyl)pyrimidin-2-yl)amino)cyclohexyl)-[1,4′-bipiperidine]-4-carboxamide]", "values": [
      {"measurement": "DC50", "result": "< 500", "unit": "nM"}
    ]},
    {"smiles": "O=C1CCC(Nc2ccc(N3CCC(CN4CCN(C(=O)[C@H]5CC[C@H](Nc6ncc(F)c(-c7cccc(-c8ccc[nH]c8=O)c7)n6)CC5)CC4)CC3)c(F)c2)C(=O)N1", "note": "(stereo partly drawn) [Compound 430, 3-((3-fluoro-4-(4-((4-(trans-4-((5-fluoro-4-(3-(2-oxo-1,2-dihydropyridin-3-yl)phenyl)pyrimidin-2-yl)amino)cyclohexane-1-carbonyl)piperazin-1-yl)methyl)piperidin-1-yl)phenyl)amino)piperidine-2,6-dione]", "values": [
      {"measurement": "DC50", "result": "< 500", "unit": "nM"}
    ]},
    {"smiles": "O=C1CCC(Nc2ccc(N3CCC(N4CCC(NC(=O)[C@H]5CC[C@H](Nc6ncc(F)c(-c7cccc(-n8ccccc8=O)c7)n6)CC5)CC4)C(F)(F)C3)c(F)c2)C(=O)N1", "note": "(stereo partly drawn) [Compound 431, trans-N-(1′-(4-((2,6-dioxopiperidin-3-yl)amino)-2-fluorophenyl)-3′,3′-difluoro-[1,4′-bipiperidin]-4-yl)-4-((5-fluoro-4-(3-(2-oxopyridin-1(2H)-yl)phenyl)pyrimidin-2-yl)amino)cyclohexane-1-carboxamide]", "values": [
      {"measurement": "DC50", "result": "< 500", "unit": "nM"}
    ]},
    {"smiles": "O=C1CCC(Nc2ccc(C3CCN(C4CCC(NC(=O)C5CCC(Nc6ncc(F)c(-c7cccc(-c8ccc[nH]c8=O)c7)n6)CC5)CC4)CC3)c(F)c2)C(=O)N1", "note": "[Compound 435, trans-(1r,4R)—N-((1S,4R)-4-(4-(4-(((S)-2,6-dioxopiperidin-3-yl)amino)-2-fluorophenyl)piperidin-1-yl)cyclohexyl)-4-((5-fluoro-4-(3-(2-oxo-1,2-dihydropyridin-3-yl)phenyl)pyrimidin-2-yl)amino)cyclohexane-1-carboxamide]", "values": [
      {"measurement": "DC50", "result": "< 500", "unit": "nM"}
    ]},
    {"smiles": "O=C1CC[C@@H](Nc2ccc(N3CCC(N4CCC(NC(=O)[C@H]5CC[C@H](Nc6ncc(F)c(-c7cccc(-n8ccccc8=O)c7)n6)CC5)CC4)CC3)c(F)c2)C(=O)N1", "note": "[Compound 440, trans-N-(1′-(4-(((R)-2,6-dioxopiperidin-3-yl)amino)-2-fluorophenyl)-[1,4′-bipiperidin]-4-yl)-4-((5-fluoro-4-(3-(2-oxopyridin-1(2H)-yl)phenyl)pyrimidin-2-yl)amino)cyclohexane-1-carboxamide]", "values": [
      {"measurement": "DC50", "result": "< 500", "unit": "nM"}
    ]},
    {"smiles": "O=C1CCC(Nc2ccc(N3CCC(N4CCC(O)(C(=O)N[C@H]5CC[C@H](Nc6ncc(F)c(-c7cccc(-n8ccccc8=O)c7)n6)CC5)CC4)CC3)c(F)c2)C(=O)N1", "note": "(stereo partly drawn) [Compound 444, trans-1′-(4-((2,6-dioxopiperidin-3-yl)amino)-2-fluorophenyl)-N-(4-((5-fluoro-4-(3-(2-oxopyridin-1(2H)-yl)phenyl)pyrimidin-2-yl)amino)cyclohexyl)-4-hydroxy-[1,4′-bipiperidine]-4-carboxamide]", "values": [
      {"measurement": "DC50", "result": "< 500", "unit": "nM"}
    ]},
    {"smiles": "O=C1CCC(Nc2ccc(C3CCN([C@H]4CC[C@H](C(=O)N[C@H]5CC[C@H](Nc6ncc(F)c(-c7cccc(N8CCOC8=O)c7)n6)CC5)CC4)CC3)c(F)c2)C(=O)N1", "note": "(stereo partly drawn) [Compound 446, trans-(1r,4R)-4-(4-(4-((2,6-dioxopiperidin-3-yl)amino)-2-fluorophenyl)piperidin-1-yl)-N-((1r,4R)-4-((5-fluoro-4-(3-(2-oxooxazolidin-3-yl)phenyl)pyrimidin-2-yl)amino)cyclohexyl)cyclohexane-1-carboxamide]", "values": [
      {"measurement": "DC50", "result": "< 500", "unit": "nM"}
    ]},
    {"smiles": "O=C1CCC(Nc2ccc(C3CCN([C@H]4CC[C@H](C(=O)N[C@H]5CC[C@H](Nc6ncc(F)c(-c7cccc(N8CCCCC8=O)c7)n6)CC5)CC4)CC3)c(F)c2)C(=O)N1", "note": "(stereo partly drawn) [Compound 447, trans-(1r,4R)-4-(4-(4-((2,6-dioxopiperidin-3-yl)amino)-2-fluorophenyl)piperidin-1-yl)-N-((1r,4R)-4-((5-fluoro-4-(3-(2-oxopiperidin-1-yl)phenyl)pyrimidin-2-yl)amino)cyclohexyl)cyclohexane-1-carboxamide]", "values": [
      {"measurement": "DC50", "result": "< 500", "unit": "nM"}
    ]},
    {"smiles": "O=C1CCC(Nc2ccc(N3CCN([C@H]4CC[C@H](C(=O)N[C@H]5CC[C@H](Nc6ncc(F)c(-c7cccc(-c8ccc[nH]c8=O)c7)n6)CC5)CC4)CC3)c(F)c2)C(=O)N1", "note": "(stereo partly drawn) [Compound 450, trans-4-(4-(4-((2,6-dioxopiperidin-3-yl)amino)-2-fluorophenyl)piperazin-1-yl)-N-(trans-4-((5-fluoro-4-(3-(2-oxo-1,2-dihydropyridin-3-yl)phenyl)pyrimidin-2-yl)amino)cyclohexyl)cyclohexane-1-carboxamide]", "values": [
      {"measurement": "DC50", "result": "< 500", "unit": "nM"}
    ]},
    {"smiles": "O=C1CCC(Nc2ccc(N3CCC(N4CCC(NC(=O)[C@H]5CC[C@H](Nc6ncc(F)c(-c7cccc(-c8ccc[nH]c8=O)c7)n6)CC5)CC4)C(F)(F)C3)c(F)c2)C(=O)N1", "note": "(stereo partly drawn) [Compound 451, trans-N-(1′-(4-((2,6-dioxopiperidin-3-yl)amino)-2-fluorophenyl)-3′,3′-difluoro-[1,4′-bipiperidin]-4-yl)-4-((5-fluoro-4-(3-(2-oxo-1,2-dihydropyridin-3-yl)phenyl)pyrimidin-2-yl)amino)cyclohexane-1-carboxamide]", "values": [
      {"measurement": "DC50", "result": "< 500", "unit": "nM"}
    ]},
    {"smiles": "O=C1CCC(Nc2ccc(N3CCC(N4CCC(NC(=O)[C@H]5CC[C@H](Nc6ncc(F)c(-c7cccc(-n8ccccc8=O)c7)n6)CC5)CC4)C(F)C3)c(F)c2)C(=O)N1", "note": "(stereo partly drawn) [Compound 452, trans-N-(1′-(4-((2,6-dioxopiperidin-3-yl)amino)-2-fluorophenyl)-3′-fluoro-[1,4′-bipiperidin]-4-yl)-4-((5-fluoro-4-(3-(2-oxopyridin-1(2H)-yl)phenyl)pyrimidin-2-yl)amino)cyclohexane-1-carboxamide]", "values": [
      {"measurement": "DC50", "result": "< 500", "unit": "nM"}
    ]},
    {"smiles": "O=C1CCC(Nc2ccc(N3CCC(N4CCC(NC(=O)[C@H]5CC[C@H](Nc6ncc(F)c(-c7cccc(-c8ccc[nH]c8=O)c7)n6)CC5)CC4)C(F)C3)c(F)c2)C(=O)N1", "note": "(stereo partly drawn) [Compound 453, trans-N-(1′-(4-((2,6-dioxopiperidin-3-yl)amino)-2-fluorophenyl)-3′-fluoro-[1,4′-bipiperidin]-4-yl)-4-((5-fluoro-4-(3-(2-oxo-1,2-dihydropyridin-3-yl)phenyl)pyrimidin-2-yl)amino)cyclohexane-1-carboxamide]", "values": [
      {"measurement": "DC50", "result": "< 500", "unit": "nM"}
    ]},
    {"smiles": "O=C1CC[C@@H](Nc2ccc(C3CCN([C@H]4CC[C@H](C(=O)N[C@H]5CC[C@H](Nc6ncc(F)c(-c7cccc(-c8ccc[nH]c8=O)c7)n6)CC5)CC4)CC3)c(F)c2)C(=O)N1", "note": "[Compound 454, trans-4-(4-(4-(((R)-2,6-dioxopiperidin-3-yl)amino)-2-fluorophenyl)piperidin-1-yl)-N-(trans-4-((5-fluoro-4-(3-(2-oxo-1,2-dihydropyridin-3-yl)phenyl)pyrimidin-2-yl)amino)cyclohexyl)cyclohexane-1-carboxamide]", "values": [
      {"measurement": "DC50", "result": "< 500", "unit": "nM"}
    ]},
    {"smiles": "O=C1CC[C@H](Nc2ccc(C3CCN([C@H]4CC[C@H](C(=O)N[C@H]5CC[C@H](Nc6ncc(F)c(-c7cccc(-n8ccccc8=O)c7)n6)CC5)CC4)CC3)c(F)c2)C(=O)N1", "note": "[Compound 457, (1S,4R)-4-(4-(4-(((S)-2,6-dioxopiperidin-3-yl)amino)-2-fluorophenyl)piperidin-1-yl)-N-((1r,4R)-4-((5-fluoro-4-(3-(2-oxopyridin-1(2H)-yl)phenyl)pyrimidin-2-yl)amino)cyclohexyl)cyclohexane-1-carboxamide]", "values": [
      {"measurement": "DC50", "result": "< 500", "unit": "nM"}
    ]}
  ]
}
